Earlier results as cited in US6924311B2, “Methods for affecting various diseases utilizing LXR compounds” (X-Ceptor Therapeutics, Inc., priority 2001, dated 2005).

Settings: db/db mice, known anti-diabetic RXR agonist, positive control; cited from earlier work

Compound: CC1(C)CCC(C)(C)c2cc(C3(c4ccc(C(=O)O)cn4)CC3)c(F)cc21 [Compound 2, 6-[1-(3-Fluoro-5,5,8,8-tetramethyl-5,6,7,8-tetrahydro-napthalen-2-yl)-cyclopropyl]-nicotinic acid]
- effect on blood glucose levels: effectively lower blood glucose levels in db/db mice
